Test results as given in patent publication US10905118B2, “Triscationic amphiphile compounds, compositions, and methods for making same” (James Madison Innovations, Inc., priority 2014, dated 2021).

What was measured:
[1] = test system: Bacillus cereus; test: Minimum inhibitory concentration, B. cereus; format: cell-based; conditions: Mueller-Hinton Broth, 37° C., 72 h
Description: (§1) The MIC values of all compounds from both double-tailed series were determined for four Gram-positive (Staphylococcus aureus, Enterococcus faecalis, Streptococcus agalactiae, and Bacillus cereus) and two Gram-negative (Escherichia coli and Pseudomonas aeruginosa) strains, which are shown in Table 3.
(§2) The Gram-positive bacterial strains used tested were Staphylococcus aureus subsp. aureus ATCC® 29213™, Enterococcus faecalis ATCC® 29212™, Bacillus cereus, and Streptococcus agalactiae J48.^58 The Gram-negative bacterial strains used were Escherichia coli ATCC® 25922™ and Pseudomonas aeruginosa ATCC® 27853™. All strains were grown in 1× Mueller-Hinton Broth at 37° C. for 12-24 h. For the MIC and combination studies, bacterial suspensions were prepared by diluting overnight cultures to 5×10^6 CFU/mL in 2× Mueller-Hinton Broth, so that when amphiphile solutions are added the final broth strength is 1×.
(§3) The methods used to determine the MIC and MBC were performed as previously described and followed the standards set forth by the Clinical and Laboratory Standards Institute (See Ladow, J. E.; Warnock, D. C.; Hamill, K. M.; Simmons, K. L.; Davis, R. W.; Schwantes, C. R.; Flaherty, D. C.; Willcox, J. A. L.; Wilson-Henjum, K.; Caran, K. L.; Minbiole, K. P. C.; Seifert, K. Bicephalic amphiphile architecture affects antibacterial activity. Eur. J. Med. Chem. 2011, 46, 4219-4226 and P. A. Wayne Methods for dilution antimicrobial tests for bacteria that grow aerobically. 2009.). Briefly, compounds were serially diluted and 100 μL of each dilution were added to the wells of a 96-well flat-bottomed microtiter plate in triplicate. After adding 100 μL of the bacterial cell suspension, the plates were incubated at 37° C. for 72 h. […] The MIC was considered to be bactericidal if the MBC was the same concentration or one concentration higher in the dilution series as the MIC, per Motyl, M.; Dorso, K.; Barrett, J.; Giacobbe, R. Basic microbiological techniques used in antibacterial drug discovery. Curr. Protoc. Pharmacol. 2006, Chapter 13.

[2] = test system: Enterococcus faecalis; test: Minimum inhibitory concentration, E. faecalis; format: cell-based, Enterococcus faecalis ATCC 29212; conditions: Mueller-Hinton Broth, 37° C., 72 h
Description: as §1, §2, §3

[3] = test system: Streptococcus agalactiae; test: Minimum inhibitory concentration, S. agalactiae; format: cell-based, Streptococcus agalactiae J48; conditions: Mueller-Hinton Broth, 37° C., 72 h
Description: as §1, §2, §3

[4] = test system: Staphylococcus aureus; test: Minimum inhibitory concentration, S. aureus; format: cell-based, Staphylococcus aureus subsp. aureus ATCC 29213; conditions: Mueller-Hinton Broth, 37° C., 72 h
Description: as §1, §2, §3

[5] = test system: Escherichia coli; test: Minimum inhibitory concentration, E. coli; format: cell-based, Escherichia coli ATCC 25922; conditions: Mueller-Hinton Broth, 37° C., 72 h
Description: as §1, §2, §3

[6] = test system: Pseudomonas aeruginosa; test: Minimum inhibitory concentration, P. aeruginosa; format: cell-based, Pseudomonas aeruginosa ATCC 27853; conditions: Mueller-Hinton Broth, 37° C., 72 h
Description: as §1, §2, §3

[7] = Isothermal titration calorimetry: critical aggregation concentration and thermodynamics of aggregation; format: physicochemical; conditions: for −TΔSmic: Gibbs-Helmholtz equation; for −TΔSmic / ΔGmic: double-tailed series; for ΔGmic: approximated with RT ln(CAC/55.5); for CMC / ΔHmic: pure water, double-tailed M-P and M-1 series; for −TΔSagg term (sign, in words): Table 1
Description: Isothermal titration calorimetry (ITC) was used to determine the critical aggregation concentration (CAC) and the thermodynamic parameters at 37° C. associated with aggregate formation for each double-tailed amphiphile for the M-P and M-1 series, as shown in Table 1.
A Nano ITC was used to measure the heat change associated with the deaggregation of amphiphiles via power compensation. A concentrated aqueous solution of amphiphile (>>CAC) was titrated into a thermally controlled sample cell, initially containing pure water, in a series of discrete injections. Isothermal titration calorimetry was used to determine the critical aggregation concentration (CAC) and ΔHagg. Shown in FIG. 5 is the heat rate associated with each injection versus time for 9 (M-1,14,14). Shown in FIG. 6 is the integration of the heat per injection normalized by the number of moles of each injection versus the increasing concentration of amphiphile in the well. In FIG. 6, inset, CAC is determined by calculating the first derivative the heat curve.
During initial injections (Range I), measured heat changes are due to both the dilution of aggregates and deaggregation. This can be observed in the first 10 injections, where aggregates absorbed heat and disassociated into dissolved monomers. The heat change produced by each injection was approximately constant in this range. In Range II, injected aggregates don't fully dissociate, reducing the total absorbed heat for each subsequent injection. At concentrations well above the CAC (Range III), absorbed heat is attributed only to the dilution of aggregates and is approximately constant. […] CAC and thermodynamic data were not determined for the amphiphiles with the shortest tails [1 (M-P,8,8) and 6 (M-1,8,8)] because the heat evolved during injection was […] the threshold of the instrument.
The difference between the average heat of injections in Range I, representing the total heat due to the dilution of aggregates and deaggregation, and the average heat of injections in Range III, representing the heat due solely to the dilution of aggregates, gives the heat of deaggregation, ΔHdeagg. The ΔHdeagg for compound 9 (M-1,14,14) is 37 kJ/mol, corresponding to a heat of aggregate formation, ΔHagg, of −37 kJ/mol (ΔHagg=−ΔHdeagg).
The ΔGagg can be approximated for the aggregation of nonionic amphiphiles by the equation: ΔGagg=RT ln(CAC/55.5) (3)
where m is the concentration of counterions that associate with a aggregate and n is the number of monomers that associate to form an aggregate. […] BBA-Biomembranes. 2000, 1508, 69-85.)
The entropy of aggregation (ΔSagg) is dictated by a combination of entropic factors that favor or disfavor aggregate formation and can be approximated using the Gibbs-Helmholtz equation: ΔGagg=ΔHagg−TΔSagg (5)
CAC and ΔHagg were determined using a Nano-ITC (TA-Instruments). Prior to each experiment the sample cell was washed with dH2O (300 mL), ethanol (100 mL), dH2O (300 mL) and nanopure water (200 mL). Next, 950 μL of nanopure water was added to the sample cell. A concentrated aqueous solution (>>CAC) of amphiphile was prepared and equilibrated at 37° C. A 250 μL syringe was filled with the aqueous solution, and loaded into the Nano ITC. Multiple single injections in aliquots of 5 μL were injected into the sample cell with time intervals varying from 300 s to 1400 s. Samples were continuously stirred (300 rpm) throughout the titration. The Nano-Analyze program (TA-Instruments) was used to analyze the data. CAC and ΔHagg values reported are the average of two or more repeat experiments for each amphiphile.

| SMILES | MIC B. cereus (G+) [1] | MIC E. faecalis (G+) [2] | MIC S. agalactiae (G+) [3] | MIC S. aureus (G+) [4] | MIC E. coli (G−) [5] | MIC P. aeruginosa (G−) [6] | −TΔSmic ([7]; 37° C.) | ΔGmic ([7]; 37° C.) | CMC ([7]; ITC, 37° C.) | ΔHmic ([7]; ITC, 37° C.) | −TΔSagg term (sign, in words) [7] | ΔHagg ([7]; ITC, 37° C.) | ΔHdeagg (heat of deaggregation) ([7]; ITC, 37° C., Range I minus Range III) |
| --- | --- | --- | --- | --- | --- | --- | --- | --- | --- | --- | --- | --- | --- |
| CCCCCCCC[N+](C)(C)Cc1cc(C[n+]2ccccc2)cc(C[N+](C)(C)CCCCCCCC)c1.[Br-].[Br-].[Br-] [Compound 1] | >250 µM | >250 µM | >250 µM | >250 µM | >250 µM | >250 µM |  |  |  |  |  |  |  |
| CCCCCCCCCC[N+](C)(C)Cc1cc(C[n+]2ccccc2)cc(C[N+](C)(C)CCCCCCCCCC)c1.[Br-].[Br-].[Br-] [Compound 2] | 8 µM | 8 µM | 8 µM | 2 µM | 16 µM | 63 µM | 2.39 kcal/mol | -5.02 kcal/mol | 14 mM | -2.63 kcal/mol | negative |  |  |
| CCCCCCCC[N+](C)(C)Cc1cc(C[N+](C)(C)C)cc(C[N+](C)(C)C)c1.[Br-].[Br-].[Br-] [Compound S1] | >250 µM | >250 µM | >250 µM | >250 µM | >250 µM | >250 µM |  |  |  |  |  |  |  |
| CCCCCCCCCC[N+](C)(C)Cc1cc(C[N+](C)(C)C)cc(C[N+](C)(C)C)c1.[Br-].[Br-].[Br-] [Compound S2] | 125 µM | 250 µM | 125 µM | >250 µM | >250 µM | >250 µM |  |  |  |  |  |  |  |
| CCCCCCCCCCCC[N+](C)(C)Cc1cc(C[N+](C)(C)C)cc(C[N+](C)(C)C)c1.[Br-].[Br-].[Br-] [Compound S3] | 63 µM | 250 µM | 125 µM | 63 µM | >250 µM | >250 µM |  |  |  |  |  |  |  |

Further lines, results first:

| MIC B. cereus (G+) [1] | MIC E. faecalis (G+) [2] | MIC S. agalactiae (G+) [3] | MIC S. aureus (G+) [4] | MIC E. coli (G−) [5] | MIC P. aeruginosa (G−) [6] | −TΔSmic ([7]; 37° C.) | ΔGmic ([7]; 37° C.) | CMC ([7]; ITC, 37° C.) | ΔHmic ([7]; ITC, 37° C.) | −TΔSagg term (sign, in words) [7] | ΔHagg ([7]; ITC, 37° C.) | ΔHdeagg (heat of deaggregation) ([7]; ITC, 37° C., Range I minus Range III) | SMILES |
| --- | --- | --- | --- | --- | --- | --- | --- | --- | --- | --- | --- | --- | --- |
| 2 µM | 2 µM | 1 µM | 2 µM | 4 µM | 8 µM | 0.741 kcal/mol | -6.21 kcal/mol | 2.4 mM | -5.5 kcal/mol | negative |  |  | CCCCCCCCCCCC[N+](C)(C)Cc1cc(C[n+]2ccccc2)cc(C[N+](C)(C)CCCCCCCCCCCC)c1.[Br-].[Br-].[Br-] [Compound 3] |
| 8 µM | 4 µM | 4 µM | 4 µM | 16 µM | 63 µM | -2.08 kcal/mol | -7.17 kcal/mol | 0.56 mM | -9.08 kcal/mol | positive |  |  | CCCCCCCCCCCCCC[N+](C)(C)Cc1cc(C[n+]2ccccc2)cc(C[N+](C)(C)CCCCCCCCCCCCCC)c1.[Br-].[Br-].[Br-] [Compound 4] |
| 32 µM | 32 µM | 4 µM | 32 µM | 125 µM | >250 µM | -2.2 kcal/mol | -7.89 kcal/mol | 0.18 mM | -10 kcal/mol | positive |  |  | CCCCCCCCCCCCCCCC[N+](C)(C)Cc1cc(C[n+]2ccccc2)cc(C[N+](C)(C)CCCCCCCCCCCCCCCC)c1.[Br-].[Br-].[Br-] [Compound 5] |
| >250 µM | >250 µM | >250 µM | >250 µM | >250 µM | >250 µM |  |  |  |  |  |  |  | CCCCCCCC[N+](C)(C)Cc1cc(C[N+](C)(C)C)cc(C[N+](C)(C)CCCCCCCC)c1.[Br-].[Br-].[Br-] [Compound 6] |
| 8 µM | 8 µM | 4 µM | 16 µM | 125 µM | >250 µM | 1.58 kcal/mol | -5.26 kcal/mol | 12 mM | -3.59 kcal/mol | negative |  |  | CCCCCCCCCC[N+](C)(C)Cc1cc(C[N+](C)(C)C)cc(C[N+](C)(C)CCCCCCCCCC)c1.[Br-].[Br-].[Br-] [Compound 7] |
| 2 µM | 2 µM | 2 µM | 2 µM | 4 to 8 µM | 16 µM | 0.0196 kcal/mol | -6.21 kcal/mol | 2.5 mM | -6.21 kcal/mol | negative |  |  | CCCCCCCCCCCC[N+](C)(C)Cc1cc(C[N+](C)(C)C)cc(C[N+](C)(C)CCCCCCCCCCCC)c1.[Br-].[Br-].[Br-] [Compound 8] |
| 4 µM | 4 µM | 2 to 4 µM | 4 to 8 µM | 8 µM | 125 µM | -1.91 kcal/mol | -6.93 kcal/mol | 0.61 mM | -8.84 kcal/mol | positive | -8.84 kcal/mol | 8.84 kcal/mol | CCCCCCCCCCCCCC[N+](C)(C)Cc1cc(C[N+](C)(C)C)cc(C[N+](C)(C)CCCCCCCCCCCCCC)c1.[Br-].[Br-].[Br-] [Compound 9] |
